Data on 23 molecules can be found in patent publication US20220348558A1, “INHIBITORS OF ENCEPHALITIC ALPHAVIRUSES” (priority 2019, published 2022).

One assay deals with WEEV California. The assay can be described thus: microbe, parasite or virus in culture. It counts as cell-based. Conditions: Western equine encephalitis virus, Vero 76, 48 h, read-out: WEEV California EC50 nM.
Another assay concerns VEEV TC83. The assay can be described thus: microbe, parasite or virus in culture. Conditions: Venezuelan equine encephalitis virus, Vero 76, 48 h, read-out: VEEV TC83 EC50 nM. It counts as cell-based.
In another assay the test system is EEEV BeAr 436087. The assay can be described thus: microbe, parasite or virus in culture. It counts as cell-based. Conditions: Eastern equine encephalitis virus, Vero 76, 48 h, read-out: EEEV BeAr 436087 EC50 nM.
Assay [1] relates to EEEV FL93-939. Briefly: microbe, parasite or virus in culture. The class given is cell-based. Particulars: Eastern equine encephalitis virus, Vero 76, 48 h, read-out: EEEV FL93-939 EC50.
Another assay relates to VEEV TrD. Also noted: species or system BALB/C mice. Particulars: mouse, in vivo.
In assay [2] the test system is EEEV FL93-939. Also on record: species or system C57BL/6 mice. Conditions: mouse, in vivo.

By EC50 is commonly meant the concentration needed to bring the measured effect to its halfway point.

Read-outs that look alike come from different tables or passages of the source.

Turning to `COc1ccc(-n2c([C@H]3CCCN3)nc3c(-c4cccnc4)cc(C#N)cc3c2=O)cc1F` [Example 107, (R)-3-(3-fluoro-4-methoxyphenyl)-4-oxo-8-(pyridin-3-yl)-2-(pyrrolidin-2-yl)-3,4-dihydroquinazoline-6-carbonitrile], the 50% effective concentration (EC50) with WEEV California fell in the range of 1 to 50 nM; in the assay with VEEV TC83, 1 to 50 nM; with EEEV BeAr 436087 it was 1 to 50 nM; in the assay on EEEV FL93-939 [1], 51 to 150 nM.

With `COc1ccc(-n2c(C3CCCN3)nc3c(-c4ccc(C)nc4)cc(C#N)cc3c2=O)cc1F` (stereo not drawn) [Example 101, 3-(3-fluoro-4-methoxyphenyl)-8-(6-methylpyridin-3-yl)-4-oxo-2-(pyrrolidin-2-yl)-3,4-dihydroquinazoline-6-carbonitrile], the EC50 in the assay with WEEV California was 1 to 50 nM; in the assay on VEEV TC83 it was 1 to 50 nM; in the assay on EEEV BeAr 436087 it was 51 to 150 nM; in the assay with EEEV FL93-939 [1], 51 to 150 nM.

Consider `COc1ccc(-n2c([C@H]3CCNC3)nc3ccc([N+](=O)[O-])cc3c2=O)cc1` [Example 18, (S)-3-(4-methoxyphenyl)-6-nitro-2-(pyrrolidin-3-yl) quinazolin-4 (3H)-one], for which the concentration for a half-maximal effect (EC50) lay in the range of 151 to 500 nM with WEEV California, 1 to 50 nM with VEEV TC83, 51 to 150 nM in the assay with EEEV BeAr 436087 and 151 to 500 nM in the assay with EEEV FL93-939 [1].

Regarding `COc1ccc(-n2c([C@H]3CCCN3)nc3c(-c4ccc(F)nc4)cc([N+](=O)[O-])cc3c2=O)cc1F` [Example 89, (R)-3-(3-fluoro-4-methoxyphenyl)-8-(6-fluoropyridin-3-yl)-6-nitro-2-(pyrrolidin-2-yl) quinazolin-4 (3H)-one], the EC50 in the assay with WEEV California lay in the range of 1 to 50 nM; with VEEV TC83, 1 to 50 nM; with EEEV BeAr 436087, 51 to 150 nM; with EEEV FL93-939 [1], 51 to 150 nM.

As for `COc1ccc(-n2c([C@@H]3CCCN3C)nc3c(C)cc([N+](=O)[O-])cc3c2=O)cc1` [Example 58, (S)-3-(4-methoxyphenyl)-8-methyl-2-(1-methylpyrrolidin-2-yl)-6-nitroquinazolin-4 (3H)-one], the half-maximal effective concentration (EC50) lay in the range of 1 to 50 nM in the assay on WEEV California, 1 to 50 nM in the assay on VEEV TC83, 51 to 150 nM with EEEV BeAr 436087 and 51 to 150 nM in the assay with EEEV FL93-939 [1].

With `COc1ccc(-n2c([C@H]3CCCN3)nc3c(C)cc([N+](=O)[O-])cc3c2=O)cc1F` [Example 59], the EC50 with WEEV California was in the range of 1 to 50 nM; in the assay on VEEV TC83, 1 to 50 nM; in the assay on EEEV BeAr 436087 it was 51 to 150 nM; in the assay on EEEV FL93-939 [1] it was 51 to 150 nM.

For `COc1ccc(-n2c([C@H]3CCCN3C)nc3ccc([N+](=O)[O-])cc3c2=O)cc1` [Example 10, (R)-3-(4-methoxyphenyl)-2-(1-methylpyrrolidin-2-yl)-6-nitroquinazolin-4 (3H)-one], the concentration giving a half-maximal response (EC50) with WEEV California was in the range of 151 to 500 nM; in the assay with VEEV TC83, 1 to 50 nM; with EEEV BeAr 436087, 51 to 150 nM; in the assay on EEEV FL93-939 [1] it was 151 to 500 nM.

In the case of `COc1ccc(-n2c([C@H]3CCCN3)nc3c(C)cc([N+](=O)[O-])cc3c2=O)cc1` [Example 55, (R)-3-(4-methoxyphenyl)-8-methyl-6-nitro-2-(pyrrolidin-2-yl) quinazolin-4 (3H)-one], the EC50 lay within 1 to 50 nM in the assay on WEEV California, 1 to 50 nM in the assay on VEEV TC83, 51 to 150 nM with EEEV BeAr 436087 and 51 to 150 nM in the assay with EEEV FL93-939 [1]. Besides, the “day 14 % survival” value with VEEV TrD amounted to 100%. Further, the survival rate in the assay on VEEV TrD (12 mg/kg/day) turned out to be 75%; in the assay with VEEV TrD (24 mg/kg/day), 75%; in the assay on VEEV TrD (48 mg/kg/day), 100%. Moreover, the “% survival on day 21” value stood at 30% with EEEV FL93-939 [2] (12 mg/kg/day), 60% in the assay with EEEV FL93-939 [2] (25 mg/kg/day) and 70% in the assay on EEEV FL93-939 [2] (50 mg/kg/day).

With `COc1ccc(-n2c([C@H]3CCCN3C)nc3c(C)cc([N+](=O)[O-])cc3c2=O)cc1` [Example 57, (R)-3-(4-methoxyphenyl)-8-methyl-2-(1-methylpyrrolidin-2-yl)-6-nitroquinazolin-4 (3H)-one], the half-maximal effective concentration (EC50) was 151 to 500 nM with WEEV California, 51 to 150 nM with VEEV TC83, 51 to 150 nM with EEEV BeAr 436087 and 51 to 150 nM with EEEV FL93-939 [1].

For `COc1ccc(-n2c([C@H]3CCCN3)nc3c(-c4ccc(C(F)(F)F)nc4)cc(C#N)cc3c2=O)cc1F` [Example 100, (R)-3-(3-fluoro-4-methoxyphenyl)-4-oxo-2-(pyrrolidin-2-yl)-8-(6-(trifluoromethyl)pyridin-3-yl)-3,4-dihydroquinazoline-6-carbonitrile], the 50% effective concentration (EC50) fell in the range of 1 to 50 nM in the assay with WEEV California, 1 to 50 nM in the assay on VEEV TC83, 51 to 150 nM in the assay on EEEV BeAr 436087 and 51 to 150 nM in the assay with EEEV FL93-939 [1].

For `COc1ccc(-n2c(C3CCCN3)nc3c(-c4ccc(N(C)C)nc4)cc(C#N)cc3c2=O)cc1F` (stereo not drawn) [Example 130, 8-(6-(dimethylamino)pyridin-3-yl)-3-(3-fluoro-4-methoxyphenyl)-4-oxo-2-(pyrrolidin-2-yl)-3,4-dihydroquinazoline-6-carbonitrile], the concentration for a half-maximal effect (EC50) with WEEV California and with VEEV TC83 was 1 to 50 nM throughout.

Turning to `O=c1c2cc([N+](=O)[O-])ccc2nc(C2CCCN2)n1-c1cccc(F)c1` (stereo not drawn) [Example 40, 3-(3-fluorophenyl)-6-nitro-2-(pyrrolidin-2-yl)quinazolin-4 (3H)-one], the concentration giving a half-maximal response (EC50) was in the range of 501 to 1000 nM in the assay with WEEV California and 1 to 50 nM in the assay on VEEV TC83.

For the molecule `COc1ccc(-n2c([C@H]3CCCN3)nc3c(-c4ccc(C)nc4)cc(C#N)cc3c2=O)cc1F` [Example 102, (R)-3-(3-fluoro-4-methoxyphenyl)-8-(6-methylpyridin-3-yl)-4-oxo-2-(pyrrolidin-2-yl)-3,4-dihydroquinazoline-6-carbonitrile], the EC50 with WEEV California and in the assay with VEEV TC83 was 1 to 50 nM throughout.

Consider `COc1ccc(-n2c([C@H]3CC(=O)CN3)nc3c(-c4ccc(C)nc4)cc(C#N)cc3c2=O)cc1F` [Example 186, (R)-3-(3-fluoro-4-methoxyphenyl)-8-(6-methylpyridin-3-yl)-4-oxo-2-(4-oxopyrrolidin-2-yl)-3,4-dihydroquinazoline-6-carbonitrile], for which the EC50 is 501 to 1000 nM with WEEV California and 151 to 500 nM with VEEV TC83.

Regarding `COCCOc1ccc(-c2cc(C#N)cc3c(=O)n(-c4ccc(OC)c(F)c4)c(C4CCCN4)nc23)cc1` (stereo not drawn) [Example 154, 3-(3-Fluoro-4-methoxyphenyl)-8-(4-(2-methoxyethoxy)phenyl)-4-oxo-2-(pyrrolidin-2-yl)-3,4-dihydroquinazoline-6-carbonitrile], the EC50 in the assay on WEEV California and in the assay with VEEV TC83 was 1 to 50 nM throughout.

`COc1ccc(-n2c([C@H]3CCC(=O)N3)nc3c(-c4ccc(C)nc4)cc(C#N)cc3c2=O)cc1F` [Example 121, (R)-3-(3-fluoro-4-methoxyphenyl)-8-(6-methylpyridin-3-yl)-4-oxo-2-(5-oxopyrrolidin-2-yl)-3,4-dihydroquinazoline-6-carbonitrile]: the EC50 in the assay with WEEV California and in the assay with VEEV TC83 was above 1000 nM throughout.

On to `COc1ccc(-n2c(C3CCCN3)nc3c(-c4ccc(N5CCCC5)nc4)cc(C#N)cc3c2=O)cc1F` (stereo not drawn) [Example 127, 3-(3-fluoro-4-methoxyphenyl)-4-oxo-8-(6-(pyrrolidin-1-yl)pyridin-3-yl)-2-(pyrrolidin-2-yl)-3,4-dihydroquinazoline-6-carbonitrile], for which the figures for the concentration for a half-maximal effect (EC50) in the assay with WEEV California and with VEEV TC83 were 51 to 150 nM and 1 to 50 nM, respectively.

`O=c1c2cc([N+](=O)[O-])ccc2nc([C@H]2CCCN2)n1-c1ccc(OC(F)(F)F)cc1` [Example 44, (R)-6-nitro-2-(pyrrolidin-2-yl)-3-(4-(trifluoromethoxy)phenyl)quinazolin-4 (3H)-one]: the concentration for a half-maximal effect (EC50) in the assay on WEEV California and in the assay with VEEV TC83 was above 1000 nM in each case.

As for `COc1ccc(-n2c(-c3cnco3)nc3c(-c4ccc(C)nc4)cc(C#N)cc3c2=O)cc1F` [Example 198, 3-(3-fluoro-4-methoxyphenyl)-8-(6-methylpyridin-3-yl)-2-(oxazol-5-yl)-4-oxo-3,4-dihydroquinazoline-6-carbonitrile], the concentration giving a half-maximal response (EC50) in the assay with WEEV California and with VEEV TC83 was above 1000 nM in each case.

For `COc1c(F)cc(-n2c(C3CCCN3)nc3c(-c4cc(C)nc(C)c4)cc(C#N)cc3c2=O)cc1F` (stereo not drawn) [Example 159, 3-(3,5-Difluoro-4-methoxyphenyl)-8-(2,6-dimethylpyridin-4-yl)-4-oxo-2-(pyrrolidin-2-yl)-3,4-dihydroquinazoline-6-carbonitrile], the 50% effective concentration (EC50) in the assay with WEEV California and with VEEV TC83 was 51 to 150 nM in each case.

For `COc1ccc(-n2c([C@H]3C[C@H](F)CN3)nc3c(-c4cccnc4)cc([N+](=O)[O-])cc3c2=O)cc1` [Example 86, 2-((2R,4S)-4-fluoropyrrolidin-2-yl)-3-(4-methoxyphenyl)-6-nitro-8-(pyridin-3-yl) quinazolin-4 (3H)-one], the EC50 lay within 1 to 50 nM in the assay on WEEV California, 1 to 50 nM in the assay with VEEV TC83, 51 to 150 nM in the assay on EEEV BeAr 436087 and 51 to 150 nM in the assay with EEEV FL93-939 [1].

On to `COc1ccc(-n2c(C3CCCN3C)nc3c(-c4ccc(C)nc4)cc(C#N)cc3c2=O)cc1F` (stereo not drawn) [Example 111, 3-(3-fluoro-4-methoxyphenyl)-8-(6-methylpyridin-3-yl)-2-(1-methylpyrrolidin-2-yl)-4-oxo-3,4-dihydroquinazoline-6-carbonitrile], for which the EC50 in the assay with WEEV California and in the assay on VEEV TC83 was 1 to 50 nM throughout.

For the molecule `O=c1c2cc([N+](=O)[O-])ccc2nc([C@H]2CCCN2C2CCOCC2)n1-c1ccccc1` [Example 3, (R)-6-nitro-3-phenyl-2-(1-(tetrahydro-2H-pyran-4-yl)pyrrolidin-2-yl) quinazolin-4 (3H)-one], the EC50 in the assay on WEEV California is above 1000 nM; in the assay on VEEV TC83 it was 501 to 1000 nM.
